Results on four molecules are retold here after article PMC10741476, “The Allosteric Regulation of Β-Ureidopropionase Depends on Fine-Tuned Stability of Active-Site Loops and Subunit Interfaces” (Biomolecules, 2023).

Read-outs that look alike come from different tables or passages of the source. Residues, ends and D or L forms follow the SMILES beside them.

Data set [1] has as its target T1, human β-ureidopropionase (HsβUP) (Homo sapiens, UniProt Q9UBR1).
T1 construct: gene UPB1
T1 sequence (Q9UBR1 1-384): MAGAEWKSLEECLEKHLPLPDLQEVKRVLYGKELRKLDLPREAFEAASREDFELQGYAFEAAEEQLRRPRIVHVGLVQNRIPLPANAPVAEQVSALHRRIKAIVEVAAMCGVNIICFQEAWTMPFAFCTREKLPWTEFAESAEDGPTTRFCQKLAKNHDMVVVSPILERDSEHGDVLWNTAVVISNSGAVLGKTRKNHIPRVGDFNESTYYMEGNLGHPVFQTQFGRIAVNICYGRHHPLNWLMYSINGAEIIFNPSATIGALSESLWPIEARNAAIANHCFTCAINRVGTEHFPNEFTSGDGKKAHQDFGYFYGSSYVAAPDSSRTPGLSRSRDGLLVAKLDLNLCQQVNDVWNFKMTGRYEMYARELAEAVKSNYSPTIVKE
The data set can be described thus: discontinuous OPA fluorescence assay of beta-alanine formation from NCβA. It is filed as biochemical. The source says:
discontinuous OPA fluorescence assay of beta-alanine formation from NCβA on human β-ureidopropionase (HsβUP)

Substrate in data set [2]: NC(=O)NCCC(=O)O
The data set is described as above. It is filed as biochemical, Homo sapiens. As to conditions: pH 6.5, 37 °C, 100 mM MES, 50 mM NaCl.

Turning to `CC(C)C(=O)O` [isobutyric acid], in data set [1], the inhibitory constant (Ki) was 2270 µM.

Molecule `CC(C)(N)C(=O)O` [2-aminoisobutyric acid] had an inhibition constant (Ki) in data set [1] of 151 µM.

`NCC(=O)NCC(=O)O` [glycyl-glycine] (H-Gly-Gly-OH) had a Ki in data set [1] (pH 6.5, 37 °C, 100 mM MES, 50 mM NaCl, competitive mode assumed (data best fitted as non-competitive), substrate NCβA) of 237 µM.

B1: human β-ureidopropionase (HsβUP) (Homo sapiens) (protein)
chain: T1 sequence (Q9UBR1 1-384)
For the molecule B1, the Km in data set [2] amounted to 101.4 µM.

For orientation: Ki means the equilibrium dissociation constant of an inhibitor or competing ligand from its target. A word on the Km: it is the substrate concentration at which the rate is half of its maximum.
